We go through 1 compound from US7579462B2, “Process for preparing 17-allyl amino geldanamycin (17-aag) and other ansamycins” (Conforma Therapeutics Corporation, priority 2001, dated 2009).

The data set can be described thus: Relative solubility of 17-AAG polymorphs in solvents and oils. The following applies: lower melting point form (about 147-153° C.) compared with higher melting point form (about 200-212° C.) of 17-AAG; at room temperature. It counts as physicochemical. The source says: Indeed, one aspect of the invention is the ability to form and exploit different polymorphic structures. […] The water may be premixed with the ethanol or later added to the ethanol solution already containing 17-AAG dissolved therein. […] Depending on the end-goal, one may readily convert one form to another simply by dissolving and crystallizing in the appropriate solvent.

Take `C=CCNC1=C2C[C@@H](C)C[C@H](OC)[C@H](O)[C@@H](C)/C=C(\C)[C@H](OC(N)=O)[C@@H](OC)/C=C\C=C(/C)C(=O)NC(=CC1=O)C2=O` [17-AAG, 17-allylamino-geldanamycin]: the “solubility in a variety of solvents and oils” value is given as “more readily soluble”.
